Laboratory results as given in patent US7244557B2, “Method of screening modulators of Nod1 signaling” (Regents of the University of Michigan, priority 2003, dated 2007).

Target: T1, NOD1ΔLRR (Homo sapiens, UniProt Q9Y239)
T1 construct: pcDNA3-NOD1-ΔLRR(1–648)-FLAG; expressed in transfected cells; host or cells: HEK293T
T1 sequence (Q9Y239 1-648): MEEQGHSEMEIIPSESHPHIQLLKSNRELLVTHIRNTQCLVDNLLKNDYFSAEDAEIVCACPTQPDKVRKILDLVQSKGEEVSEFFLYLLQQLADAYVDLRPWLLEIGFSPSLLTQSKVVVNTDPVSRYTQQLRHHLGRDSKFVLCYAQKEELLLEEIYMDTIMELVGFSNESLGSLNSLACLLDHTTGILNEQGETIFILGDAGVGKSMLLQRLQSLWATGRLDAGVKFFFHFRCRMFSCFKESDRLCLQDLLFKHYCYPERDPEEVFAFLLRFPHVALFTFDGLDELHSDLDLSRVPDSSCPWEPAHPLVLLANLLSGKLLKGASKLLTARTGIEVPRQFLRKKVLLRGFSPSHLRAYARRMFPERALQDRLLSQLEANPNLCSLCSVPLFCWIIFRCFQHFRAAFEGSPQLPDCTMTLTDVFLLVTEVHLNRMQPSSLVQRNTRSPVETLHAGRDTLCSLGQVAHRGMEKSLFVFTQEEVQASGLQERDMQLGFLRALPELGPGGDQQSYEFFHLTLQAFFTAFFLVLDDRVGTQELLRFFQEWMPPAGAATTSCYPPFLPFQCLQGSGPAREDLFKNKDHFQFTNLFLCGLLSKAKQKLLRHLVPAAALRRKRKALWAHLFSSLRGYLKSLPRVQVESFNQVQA
Assay: NF-κB activation assay, cells expressing mutant NOD1 lacking LRRs
Format: cell-based
Procedure: A) Structure of purified PGN fraction from B. subtilis (GM3P) and synthetic PGN-related compounds used in the study. B) Structure of MDP and four copies of GlcNAc-MurNAc with attached L-Ala-γ-D-Gln (4 mer) are indicated by closed and dotted boxes, respectively. C) The ability of cells were transfected with 0.3 ng pcDNA3-NOD1-Flag, 0.1 ng pcDNA3-Nod2 (NOD2) or vector control and reporter pBxIV-luc and pEF-BOS-β-gal plasmids to activate NF-κB. D) The ability of synthetic peptides, iE-DAP and iQ-DAP to stimulate NF-κB activation in the presence of control vector (−) and plasmids encoding NOD1 wild-type, mutant NOD1 lacking LRRs (NOD1ΔLRR) and NOD2. E) The ability of iE-DAP, iQ-DAP and sBLP (1 μg/ml) to activate NF-κB.
Reagents. LPS from S. typhimurium, intact and alkaline-detoxified LPS from E. coli O55:B5 as well as purified lipid A preparations of E. coli F583, MDP, DAP and dsRNA were obtained from Sigma-Aldrich (St. Louis, Mo.). PGN from S. aureus was from Fluka-Chemie (Buchs, Germany). Palmitoyl-Cys ((RS)-2,3-di(palmitoyloxy)-propyl)-Ala-Gly) (sBLP), was obtained from Bachem (Torrance, Calif.). […] The amino acid composition of E. coli O55:B5 LPS was determined using AccQ·Tag amino acid analysis system (Waters, Milford, Mass.) after hydrolysis at 110° C. for 24 hr. […]

## γ-D-glutamy-meso-diaminopimelic acid [iE-DAP]
  NF-κB activation by mutant NOD1 lacking the LRRs: did not respond
